Assay results as given in ChEMBL document CHEMBL1821645, “Synthesis and anticancer activity of (RS)-9-(2,3-dihydro-1,4-benzoxaheteroin-2-ylmethyl)-9H-purines” (Eur J Med Chem, 2011).
pIC50: −log10 of the molar value. The source made the active and inactive calls. The calls are words filed in the database; no cut-off is given here.

How the values were obtained:
[1] = target: Cellular tumor antigen p53 (Homo sapiens) (UniProt P04637); assay: Induction of p53 activation in human MCF7 cells assessed as phosphorylation at Ser15 at 3 times IC50 after 4 to 36 hrs by Western blot analysis; type: cell-based
Chain of Cellular tumor antigen p53 (Homo sapiens) (P04637 whole entry, looked up): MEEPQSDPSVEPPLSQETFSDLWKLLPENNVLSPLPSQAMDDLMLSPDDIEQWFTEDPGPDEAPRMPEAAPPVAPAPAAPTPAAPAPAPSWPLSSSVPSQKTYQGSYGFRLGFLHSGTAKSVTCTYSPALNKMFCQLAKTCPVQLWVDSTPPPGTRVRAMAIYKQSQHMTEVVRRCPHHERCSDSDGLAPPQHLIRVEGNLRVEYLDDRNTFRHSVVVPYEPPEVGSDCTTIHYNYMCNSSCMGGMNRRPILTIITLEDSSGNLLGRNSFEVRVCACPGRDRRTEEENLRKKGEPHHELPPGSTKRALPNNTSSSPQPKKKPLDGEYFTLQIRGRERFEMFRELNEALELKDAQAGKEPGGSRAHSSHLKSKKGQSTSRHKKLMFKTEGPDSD

MCF7 [2] = assay: Induction of apoptosis in human MCF7 cells assessed as activation of caspase 9 at 3 times IC50 after 16 to 36 hrs by immunoblotting; type: functional, cell-based
MCF7 [3] = assay: Antiproliferative activity against human MCF7 cells after 3 days by sulforhodamine-B colorimetric assay; type: functional, cell-based; settings: MCF7, 72 h
[4] = target: Eukaryotic translation initiation factor 2 subunit 1 (Homo sapiens) (UniProt P05198); assay: Induction of eIF2alpha phosphorylation in human MCF7 cells at 3 times IC50 after 36 hrs by Western blot analysis; type: cell-based
Chain of Eukaryotic translation initiation factor 2 subunit 1 (Homo sapiens) (P05198 whole entry): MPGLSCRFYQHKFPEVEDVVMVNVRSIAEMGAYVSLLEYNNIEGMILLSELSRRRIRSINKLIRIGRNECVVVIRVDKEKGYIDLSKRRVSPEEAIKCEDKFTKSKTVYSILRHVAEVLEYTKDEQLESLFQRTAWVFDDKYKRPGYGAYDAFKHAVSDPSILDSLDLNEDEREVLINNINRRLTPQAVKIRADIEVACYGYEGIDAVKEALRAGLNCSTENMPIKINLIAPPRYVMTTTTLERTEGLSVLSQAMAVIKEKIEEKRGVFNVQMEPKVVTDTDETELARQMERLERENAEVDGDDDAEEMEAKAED

MCF7 [5] = assay: Cell cycle arrest in human MCF7 cells assessed as accumulation at G2/M phase after 48 hrs by flow cytometry (reference value: 13.26 +/- 2.98 %); type: functional
MCF7 [6] = assay: Cell cycle arrest in human MCF7 cells assessed as accumulation at […] phase after 48 hrs by flow cytometry (reference value: 19.29 +/- 1.68 %); type: functional
MCF7 [7] = assay: Cell cycle arrest in human MCF7 cells assessed as accumulation at G0/G1 phase after 48 hrs by flow cytometry (reference value: 62.79 +/- 1.30 %); type: functional
MCF7 [8] = assay: Induction of apoptosis in human MCF7 cells at 3 times IC50 after 48 hrs by using Annexin V-FITC staining by flow cytometry (reference value: 0.92 +/- 1.29 %); type: functional

| SMILES | Activity [1] | Activity (MCF7 [2]) | pIC50 (MCF7 [3]) | Activity [4] | Activity (MCF7 [5]) [%] | Activity (MCF7 [6]) [%] | Activity (MCF7 [7]) [%] | Activity (MCF7 [8]) [%] |
| --- | --- | --- | --- | --- | --- | --- | --- | --- |
| CC(=O)O[C@H]1C(=O)[C@@]2(C)[C@H]([C@H](OC(=O)c3ccccc3)[C@]3(O)C[C@H](OC(=O)[C@H](O)[C@@H](NC(=O)c4ccccc4)c4ccccc4)C(C)=C1C3(C)C)[C@]1(OC(C)=O)CO[C@@H]1C[C@@H]2O | inactive | Active | – | – | – | – | – | – |
| Clc1ncnc2c1ncn2CC1COc2ccccc2S1 (racemic) | – | – | 4.97 | – | – | – | – | – |
| Brc1ncnc2c1ncn2CC1COc2ccccc2S1 (racemic) | – | – | 5.21 | – | – | – | – | – |
| Clc1nc(Cl)c2ncn(CC3COc4ccccc4S3)c2n1 (racemic) | – | – | 5.05 | – | – | – | – | – |
| Clc1ncnc2c1ncn2CC1CSc2ccccc2O1 (racemic) | inactive | Active | 5.03 | Active | 23.35 | 13.77 | 62.87 | 37.99 |
| Brc1ncnc2c1ncn2CC1CSc2ccccc2O1 (racemic) | inactive | Active | 5.31 | Active | 31.37 | 17.06 | 51.56 | 14.33 |
| Clc1nc(Cl)c2ncn(CC3CSc4ccccc4O3)c2n1 (racemic) | inactive | Active | 5.56 | Active | 43.89 | 10.83 | 45.28 | 70.08 |
| Nc1ncnc2c1ncn2CC1CSc2ccccc2O1 (racemic) | – | – | < 4.52 | – | – | – | – | – |
| Clc1ncnc2c1ncn2CC1COc2ccccc2O1 (racemic) | – | – | 4.73 | – | – | – | – | – |
| Brc1ncnc2c1ncn2CC1COc2ccccc2O1 (racemic) | – | – | 5.12 | – | 36.71 | 10.27 | 53.02 | 21.66 |
| Clc1nc(Cl)c2ncn(CC3COc4ccccc4O3)c2n1 (racemic) | – | – | 4.71 | – | – | – | – | – |
| Nc1ncnc2c1ncn2CC1COc2ccccc2O1 (racemic) | – | – | < 4.52 | – | – | – | – | – |
